{"source": "patent US20230270870A1", "about": "“DOSAGE OF AN ANTIBODY-DRUG CONJUGATE” (DAIICHI SANKYO COMPANY, LIMITED, priority 2019, published 2023)", "key": {"NSCLC [1]": {"test_system": "NSCLC", "settings": "NSCLC progressed during or after platinum-based doublet chemotherapy, N=290; cited from earlier work"}, "NSCLC [2]": {"test_system": "NSCLC", "settings": "phase 2, subjects who received standard of care; cited from earlier work"}, "[3]": {"experiment": "Phase 1 clinical study: pharmacokinetics", "assay_type": "in vivo", "settings": "human, plasma, intravenous", "method": "Preliminary single- and multiple-dose PK were evaluated using noncompartmental analysis in 61 subjects who received DS-1062a (0.27 mg/kg to 10 mg/kg)."}, "topoisomerase I": {"target": "T1, topoisomerase I (Homo sapiens, UniProt P11387)", "T1 sequence (P11387 1-765)": "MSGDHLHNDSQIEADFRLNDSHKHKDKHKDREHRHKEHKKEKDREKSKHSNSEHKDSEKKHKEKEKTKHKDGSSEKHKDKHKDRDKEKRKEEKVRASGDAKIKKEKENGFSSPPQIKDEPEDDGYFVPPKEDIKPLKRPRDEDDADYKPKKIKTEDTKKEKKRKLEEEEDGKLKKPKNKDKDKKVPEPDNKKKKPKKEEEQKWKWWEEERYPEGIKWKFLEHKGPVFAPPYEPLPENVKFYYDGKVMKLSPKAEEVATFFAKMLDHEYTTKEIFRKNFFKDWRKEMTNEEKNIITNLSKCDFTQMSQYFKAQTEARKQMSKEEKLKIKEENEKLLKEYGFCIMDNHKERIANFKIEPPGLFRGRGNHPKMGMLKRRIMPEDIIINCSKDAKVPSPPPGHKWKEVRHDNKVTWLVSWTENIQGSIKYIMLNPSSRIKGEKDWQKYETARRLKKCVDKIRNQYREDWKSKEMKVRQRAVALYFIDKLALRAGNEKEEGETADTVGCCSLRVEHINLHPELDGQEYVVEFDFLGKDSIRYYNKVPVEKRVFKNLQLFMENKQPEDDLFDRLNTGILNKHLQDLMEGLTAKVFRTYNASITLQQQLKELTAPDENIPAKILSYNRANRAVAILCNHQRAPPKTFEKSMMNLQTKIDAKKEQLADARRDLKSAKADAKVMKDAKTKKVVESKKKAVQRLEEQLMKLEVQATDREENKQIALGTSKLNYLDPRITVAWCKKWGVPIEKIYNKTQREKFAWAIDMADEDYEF", "settings": "cited from earlier work"}}, "note": "Like-named read-outs stand apart in the source and are kept apart here.", "data": [{"compound": "CC(=O)O[C@@]12CO[C@@H]1C[C@H](O)[C@@]1(C)C(=O)[C@H](O)C3=C(C)[C@@H](OC(=O)[C@H](O)[C@@H](NC(=O)OC(C)(C)C)c4ccccc4)C[C@@](O)([C@@H](OC(=O)c4ccccc4)[C@H]21)C3(C)C", "note": "[Docetaxel monotherapy, Docetaxel]", "values": [{"measurement": "DCR", "setting": "NSCLC [1]", "result": "54.0% (158/290) (not provided)"}, {"measurement": "ORR", "setting": "NSCLC [1]", "result": "12.0% (36/290) (9.0% to 17.0%)"}]}, {"compound": "Sactizumab govitecan", "values": [{"measurement": "ORR", "setting": "NSCLC [2]", "result": 19, "unit": "%"}]}, {"compound": "CC[C@@]1(O)C(=O)OCc2c1cc1n(c2=O)Cc2c-1nc1cc(F)c(C)c3c1c2[C@@H](NC(=O)CO)CC3", "note": "[Compound 1, HO—CH2—C(═O)—(NH—DX)]", "values": [{"measurement": "exposure of released drug compared with DS-1062a", "setting": "[3]", "result": "lower than that of DS-1062a"}, {"measurement": "topoisomerase I inhibitory effect", "setting": "topoisomerase I", "result": "topoisomerase I inhibitory effect"}]}]}
